Reference: patent US11884710B2, “Peptide compounds and methods of use in wound healing” (priority 2013, dated 2024)

Tests used:
[1] = tested on: Pseudomonas aeruginosa ATCC 27853; assay: In vitro bactericidal assay, P. aeruginosa ATCC 27853 (FIGS. 12-14); type: cell-based; conditions: for activity in in vitro killing assays, in words / reduction of the CFU: FIG. 14; for reduction of the CFU: peptides at 150, 75, 37.5 μg/ml; for reduction of CFU/ml: highest peptide concentration
Protocol: (§1) Each of the test peptides was used at 25, 12.5 6.25, and 3.12 μM. The gentamicin was used at 4 μg/ml. 1×10^6/ml Pseudomonas aeruginosa ATCC® 27853™ (American Type Culture Collection, Manassas, Va.) were incubated with the peptides, negative buffer control (tryptone saline), and positive control gentamicin for 180 minutes at pH 7.2. 50 μl aliquots were plated out on agar plates and incubated overnight. Colony forming units were counted after overnight incubation and CFU/ml calculated.
as §1, with “12.5,” for “12.5”, “5.5.” for “7.2.”
FIG. 14 is a comparison of bactericidal activity of CAP37 peptides 120-146WR (SEQ ID NO:30), 120-146WH (SEQ ID NO:31), 120-146QR (SEQ ID NO:28), 120-146QH (SEQ ID NO:29), 120-146QR-5RMP (SEQ ID NO:32), and 120-146QH-5RMP (SEQ ID NO:33) for Pseudomonas aeruginosa ATCC® 27853™ (American Type Culture Collection, Manassas, Va.). 1×10^6/ml Pseudomonas aeruginosa ATCC® 27853™ were incubated with the peptides at 150, 75, and 37.5 μg/ml and negative buffer control (tryptone saline) for 180 minutes at pH 5.5. 50 μl aliquots were plated out on agar plates and incubated overnight. Colony forming units were counted after overnight incubation and CFU/ml calculated.
For FIGS. 10-13, in vitro bactericidal assays were performed using a starting inoculum of 1×10^6 CFU/ml of the bacterial suspension. The CFU remaining at the end of the 60-180 minute incubation was determined, and the data was plotted as log reduction in CFU/ml.
In particular, each of the test peptides (CAP37 peptides 120-146WR, 120-146WH, and 95-122 (SEQ ID NOS:30, 31, and 26, respectively)) was used at 25, 12.5, 6.25, and 3.12 μM. Gentamicin was used at 4 μg/ml. 1×10^6/ml Acinetobacter baumannii ATCC® BAA-747™ or Pseudomonas aeruginosa ATCC® 27853™ (American Type Culture Collection, Manassas, Va.) were incubated with the peptides, negative buffer control (tryptone saline), and positive control gentamicin at pH 5.5 or 7.2. A 60 minute incubation was used for Acinetobacter baumannii ATCC® BAA-747™, while a 180 minute incubation was used for Pseudomonas aeruginosa ATCC® 27853™. 50 μl aliquots were plated out on agar plates and incubated overnight. Colony forming units were counted after overnight incubation and CFU/ml calculated.
For FIG. 14, 1×10^6/ml Pseudomonas aeruginosa ATCC® 27853™ were incubated with each of the test peptides (CAP37 peptides 120-146WR, 120-146WH, 120-146QR, 120-146QH, 120-146QR-5RMP, and 120-146QH-5RMP (SEQ ID NOS:30, 31, 28, 29, 32, and 33, respectively)) at 150, 75, and 37.5 μg/ml, or negative buffer control (tryptone saline), for 180 minutes at pH 5.5. 50 μl aliquots were plated out on agar plates and incubated overnight. Colony forming units were counted after overnight incubation and CFU/ml calculated.

[2] = tested on: full thickness excisional wounds; assay: Swine full thickness excisional dermal wound model; type: in vivo; conditions: for Mean Wound Healing (%): topical 3 mg/ml, 0.20 ml daily; for percentage of wound healing vs saline control, in words: 3 mg/ml
Protocol: In this Example, peptide compounds of the presently disclosed inventive concepts were evaluated as to their activity on the dermal wound healing process in a clinically relevant swine full thickness excisional wound model. Three different peptide formulations (Group B, Peptide 95-122 (SEQ ID NO:26); Group C, Peptide 120-146WH (SEQ ID NO:31); and Group D, Peptide 120-146QH-5RMP (SEQ ID NO:33)) were each evaluated at the same concentration (3 mg/ml). Sterile saline served as the control (Group A).
Full thickness excisional wounds were induced on the dorsum of swine (N=3) using a 1.0 cm biopsy punch. Treatments were administered (0.20 ml) to each wound (N=6 wounds per group), and the wounds were dressed with standard occlusive dressing ([…]™, 3M Corporation, St. Paul, Minn.). Treatments were reapplied daily and dressings changed. Clinical wound healing observations and wound area (2 mm) measurements were performed on days 0, 3, 5, 7, 10, and 14 post-wounding. Wound area (2 mm) data were expressed as percentage (%) of wound healing. Animals were terminated on day 14 with wounds harvested and processed for histological evaluation. […] All peptide formulation treatment groups healed faster with greater rate of closure and re-epithelialization over time, as compared to the saline control (Group A).

[3] = pH 7.2, 180 minutes, 120-146WR/WH at 25 μM, 95-122 at 3.12-25 μM

Sequence | bactericidal activity, in words ([1]; 120-146WR at 25 μM, gentamicin 4 μg/ml) | activity in in vitro killing assays, in words ([1]; pH 5.5, 180 minutes) | reduction of the CFU ([1]; pH 5.5, 180 minutes) [logs] | bactericidal activity, in words [1, 3] | reduction of CFU/ml ([1]; pH 7.2, 180 minutes) [logs] | Mean Wound Healing (%) ([2]; Day 0) | Mean Wound Healing (%) ([2]; Day 3) | Mean Wound Healing (%) ([2]; Day 5) | Mean Wound Healing (%) ([2]; Day 7) | Mean Wound Healing (%) ([2]; Day 10) | Mean Wound Healing (%) ([2]; Day 14) | percentage of wound healing vs saline control, in words ([2]; days 10 and 14 post-wounding) | bactericidal activity, in words ([1]; pH 5.5, 180 minutes, peptides 3.12-25 μM, gentamicin 4 μg/ml) | percentage of wound healing vs saline control, in words ([2]; days 5, 7, 10, and 14)
GTRCQVAGWGSWRSGGRLSRFPRFVNV (derivative of peptide of Homo sapiens CAP37 protein) [Peptide 120-146WR] | highly active | strongly active | 6 | as effective as the standard antibiotic gentamicin | 6 |  |  |  |  |  |  |  |  | 
GTRCQVAGWGSWHSGGRLSRFPRFVNV (derivative of peptide of CAP37 protein) [Peptide 120-146WH] |  | strongly active | 6 | as effective as the standard antibiotic gentamicin | 6 | 0.0 | 22.1 | 35.9 | 59.7 | 93.5 | 97.5 | significant (p<0.05) increase in the percentage of wound healing |  | 
LDREANLTSSVTILPLPLQNATVEAGTR (listed as Homo sapiens) [Peptide 95-122] |  |  |  | not active |  | 0.0 | 28.9 | 41.5 | 70.8 | 99.7 | 100.0 |  | not active | significant (p<0.05) increase in the percentage of wound healing
